# According to patent US11331299B2, “Medicinal use of serrulatane diterpenes” (The University of Sydney, priority 2016, dated 2022):
# Where two headings read alike, the source gives them in different places.
# Experiments:
# [1] = target: receptors (Bioprint panel) (Homo sapiens, UniProt P28335); test: biochemical; assay type: binding; conditions: read-out: Reference Compound IC50
# [2] = target: receptors (Bioprint panel) (Homo sapiens, UniProt P41595); test: biochemical; assay type: binding; conditions: read-out: Reference Compound IC50
# enzymes (Bioprint panel) [3] = target: T1, enzymes (Bioprint panel) (Homo sapiens, UniProt O00408); test: biochemical; conditions: PDE2A1 (h); read-out: Reference Compound IC50
# T1 construct: other: PDE2A1 (h); 10 μM; PDE2A1 (h)
# Sirtuin 6 (h) [4] = target: T2, Sirtuin 6 (h) (Homo sapiens, UniProt Q8N6T7); test: Epigenetic enzyme assay, Sirtuins; assay type: biochemical; conditions: Table 10; read-out: Reference IC50
# T2 sequence (Q8N6T7 whole entry): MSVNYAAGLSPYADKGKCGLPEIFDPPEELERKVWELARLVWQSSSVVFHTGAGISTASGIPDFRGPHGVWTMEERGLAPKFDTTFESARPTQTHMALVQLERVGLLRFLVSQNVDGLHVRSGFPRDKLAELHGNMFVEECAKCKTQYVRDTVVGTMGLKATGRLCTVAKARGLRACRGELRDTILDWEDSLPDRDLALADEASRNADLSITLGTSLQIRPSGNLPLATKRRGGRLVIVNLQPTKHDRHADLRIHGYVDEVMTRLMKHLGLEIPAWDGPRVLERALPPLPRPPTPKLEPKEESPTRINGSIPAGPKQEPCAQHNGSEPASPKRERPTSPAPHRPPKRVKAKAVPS
# Sirtuin 6 (h) [5] = target: T2, Sirtuin 6 (h); conditions: reference compound; Fluorogenic HDAC 50 μM; 180 min/RT; cited from earlier work
# FBXL10 (h) [6] = target: T3, FBXL10 (h) (Homo sapiens, UniProt Q8NHM5); conditions: read-out: Reference IC50; cited from earlier work
# T3 sequence (Q8NHM5 1-1336): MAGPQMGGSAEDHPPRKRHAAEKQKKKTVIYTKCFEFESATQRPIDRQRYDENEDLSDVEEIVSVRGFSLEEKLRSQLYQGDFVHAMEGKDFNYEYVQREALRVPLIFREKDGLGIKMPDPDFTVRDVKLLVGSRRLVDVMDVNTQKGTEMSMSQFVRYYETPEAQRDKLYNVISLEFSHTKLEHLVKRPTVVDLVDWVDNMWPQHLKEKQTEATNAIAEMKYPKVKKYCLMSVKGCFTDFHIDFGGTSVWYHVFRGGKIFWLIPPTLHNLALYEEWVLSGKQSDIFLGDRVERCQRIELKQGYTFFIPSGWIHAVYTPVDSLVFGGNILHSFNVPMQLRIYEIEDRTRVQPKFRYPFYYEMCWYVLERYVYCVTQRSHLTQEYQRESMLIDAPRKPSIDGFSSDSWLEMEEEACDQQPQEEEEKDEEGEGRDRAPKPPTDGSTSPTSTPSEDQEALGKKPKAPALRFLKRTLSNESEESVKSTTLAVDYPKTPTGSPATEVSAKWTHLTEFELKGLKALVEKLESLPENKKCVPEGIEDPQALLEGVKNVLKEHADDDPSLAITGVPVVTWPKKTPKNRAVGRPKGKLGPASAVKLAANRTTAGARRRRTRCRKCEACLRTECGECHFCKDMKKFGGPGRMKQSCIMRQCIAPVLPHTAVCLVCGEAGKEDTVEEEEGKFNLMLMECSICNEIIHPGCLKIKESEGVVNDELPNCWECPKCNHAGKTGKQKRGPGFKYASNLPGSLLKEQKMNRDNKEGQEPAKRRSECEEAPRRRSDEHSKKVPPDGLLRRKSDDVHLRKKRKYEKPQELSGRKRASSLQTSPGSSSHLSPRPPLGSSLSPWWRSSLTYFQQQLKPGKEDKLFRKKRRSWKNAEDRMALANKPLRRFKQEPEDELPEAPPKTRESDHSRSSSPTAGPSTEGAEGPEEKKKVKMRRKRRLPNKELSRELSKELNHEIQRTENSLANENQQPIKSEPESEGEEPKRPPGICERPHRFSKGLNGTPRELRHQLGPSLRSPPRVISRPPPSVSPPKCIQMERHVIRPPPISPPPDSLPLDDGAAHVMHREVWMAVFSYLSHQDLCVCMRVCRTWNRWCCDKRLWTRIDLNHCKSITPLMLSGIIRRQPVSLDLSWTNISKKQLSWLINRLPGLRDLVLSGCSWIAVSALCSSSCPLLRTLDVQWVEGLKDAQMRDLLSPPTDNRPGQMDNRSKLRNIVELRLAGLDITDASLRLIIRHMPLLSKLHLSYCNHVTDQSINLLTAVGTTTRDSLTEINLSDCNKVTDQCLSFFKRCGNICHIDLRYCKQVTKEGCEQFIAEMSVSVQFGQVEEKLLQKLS
# JMJD2B (h) [7] = target: T4, JMJD2B (h) (Homo sapiens, UniProt O94953); conditions: read-out: Reference IC50; cited from earlier work
# T4 sequence (O94953 1-1096): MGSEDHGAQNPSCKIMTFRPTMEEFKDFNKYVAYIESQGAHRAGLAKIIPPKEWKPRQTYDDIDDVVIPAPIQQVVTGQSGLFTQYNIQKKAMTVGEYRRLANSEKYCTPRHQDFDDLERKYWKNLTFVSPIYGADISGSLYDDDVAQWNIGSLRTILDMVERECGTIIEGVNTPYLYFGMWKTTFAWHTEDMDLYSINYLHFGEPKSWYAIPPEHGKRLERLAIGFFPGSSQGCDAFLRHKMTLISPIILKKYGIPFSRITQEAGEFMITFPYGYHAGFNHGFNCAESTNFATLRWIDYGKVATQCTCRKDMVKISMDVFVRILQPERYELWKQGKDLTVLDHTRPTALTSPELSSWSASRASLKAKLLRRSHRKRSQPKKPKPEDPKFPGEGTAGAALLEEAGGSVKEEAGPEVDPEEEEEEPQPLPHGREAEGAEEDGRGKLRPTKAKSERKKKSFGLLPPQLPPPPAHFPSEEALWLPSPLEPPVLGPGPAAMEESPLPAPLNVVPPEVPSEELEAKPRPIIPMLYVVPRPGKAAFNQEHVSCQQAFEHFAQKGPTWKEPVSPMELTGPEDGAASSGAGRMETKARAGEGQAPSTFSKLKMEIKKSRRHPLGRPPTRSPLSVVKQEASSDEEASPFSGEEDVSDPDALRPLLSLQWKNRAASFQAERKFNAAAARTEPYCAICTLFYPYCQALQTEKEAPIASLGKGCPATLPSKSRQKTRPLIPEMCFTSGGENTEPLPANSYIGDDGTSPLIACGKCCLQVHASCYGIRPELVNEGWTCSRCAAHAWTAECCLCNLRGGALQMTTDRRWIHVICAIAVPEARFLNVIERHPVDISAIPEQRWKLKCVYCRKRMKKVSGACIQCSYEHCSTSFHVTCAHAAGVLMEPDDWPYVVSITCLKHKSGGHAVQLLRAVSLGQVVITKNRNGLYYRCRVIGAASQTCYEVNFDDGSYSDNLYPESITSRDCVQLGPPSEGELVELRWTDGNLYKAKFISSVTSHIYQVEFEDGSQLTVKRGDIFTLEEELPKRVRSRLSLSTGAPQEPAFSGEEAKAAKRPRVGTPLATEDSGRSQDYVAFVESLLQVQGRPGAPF
# JARID1A (h) [8] = target: T5, JARID1A (h) (Homo sapiens, UniProt P29375); test: Epigenetic enzyme assay, Demethylases (KDMs); assay type: biochemical
# T5 sequence (P29375 whole entry): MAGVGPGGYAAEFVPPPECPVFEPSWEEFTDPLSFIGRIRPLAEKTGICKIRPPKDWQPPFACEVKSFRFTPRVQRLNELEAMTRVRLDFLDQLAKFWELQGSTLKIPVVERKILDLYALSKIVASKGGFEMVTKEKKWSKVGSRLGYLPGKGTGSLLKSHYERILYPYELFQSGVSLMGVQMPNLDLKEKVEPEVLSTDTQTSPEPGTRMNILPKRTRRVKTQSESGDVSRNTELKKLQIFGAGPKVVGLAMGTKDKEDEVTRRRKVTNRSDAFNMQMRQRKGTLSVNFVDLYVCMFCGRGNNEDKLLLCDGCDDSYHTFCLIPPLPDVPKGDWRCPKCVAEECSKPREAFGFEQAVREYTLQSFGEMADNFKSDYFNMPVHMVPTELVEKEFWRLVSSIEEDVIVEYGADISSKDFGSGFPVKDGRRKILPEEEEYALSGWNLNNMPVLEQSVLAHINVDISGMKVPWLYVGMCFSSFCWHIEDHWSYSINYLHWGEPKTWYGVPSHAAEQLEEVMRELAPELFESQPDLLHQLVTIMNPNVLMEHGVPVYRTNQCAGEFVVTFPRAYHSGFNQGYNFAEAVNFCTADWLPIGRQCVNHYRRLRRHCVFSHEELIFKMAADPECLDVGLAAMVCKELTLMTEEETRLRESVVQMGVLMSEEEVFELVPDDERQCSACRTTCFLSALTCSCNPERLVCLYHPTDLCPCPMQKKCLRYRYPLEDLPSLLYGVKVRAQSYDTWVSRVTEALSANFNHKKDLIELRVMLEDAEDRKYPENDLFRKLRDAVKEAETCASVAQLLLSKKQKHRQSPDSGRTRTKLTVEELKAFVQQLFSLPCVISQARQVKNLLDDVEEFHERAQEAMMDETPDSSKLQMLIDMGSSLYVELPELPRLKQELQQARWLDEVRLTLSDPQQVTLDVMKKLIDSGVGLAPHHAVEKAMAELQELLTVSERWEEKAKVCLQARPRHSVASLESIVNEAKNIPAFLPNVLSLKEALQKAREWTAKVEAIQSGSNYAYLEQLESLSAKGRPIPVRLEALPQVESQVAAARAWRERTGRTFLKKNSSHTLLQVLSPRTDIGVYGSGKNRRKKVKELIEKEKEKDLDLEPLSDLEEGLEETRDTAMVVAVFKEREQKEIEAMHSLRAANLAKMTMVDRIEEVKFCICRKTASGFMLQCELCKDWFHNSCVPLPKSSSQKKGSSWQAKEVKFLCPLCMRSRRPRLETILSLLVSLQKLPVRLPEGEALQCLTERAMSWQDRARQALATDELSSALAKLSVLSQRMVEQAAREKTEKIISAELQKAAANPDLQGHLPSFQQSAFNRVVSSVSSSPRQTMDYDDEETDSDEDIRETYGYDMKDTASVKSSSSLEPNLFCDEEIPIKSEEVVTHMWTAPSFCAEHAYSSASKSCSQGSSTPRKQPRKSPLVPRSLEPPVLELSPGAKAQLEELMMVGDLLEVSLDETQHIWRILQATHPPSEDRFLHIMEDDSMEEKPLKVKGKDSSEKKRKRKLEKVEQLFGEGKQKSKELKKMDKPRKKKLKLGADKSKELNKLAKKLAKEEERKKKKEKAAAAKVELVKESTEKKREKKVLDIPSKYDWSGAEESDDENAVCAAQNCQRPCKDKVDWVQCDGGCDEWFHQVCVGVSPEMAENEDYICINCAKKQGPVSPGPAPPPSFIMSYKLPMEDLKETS
# FBXL10 (h) [9] = target: T3, FBXL10 (h); test: Epigenetic enzyme assay, Demethylases (KDMs); assay type: biochemical; conditions: read-out: Reference IC50
# JARID1A (h) [10] = target: T5, JARID1A (h); conditions: read-out: Reference IC50; cited from earlier work
# JMJD2B (h) [11] = target: T4, JMJD2B (h); test: Epigenetic enzyme assay, Demethylases (KDMs); assay type: biochemical
# enzymes (Bioprint panel) [12] = target: enzymes (Bioprint panel) (Mus musculus, UniProt P29477); test: biochemical; conditions: inducible NOS; read-out: Reference Compound IC50
# GCN5L2(h) [13] = target: T6, GCN5L2(h) (Homo sapiens, UniProt Q92830); test: Epigenetic enzyme assay, Histone acetyltransferases (HATs); assay type: biochemical; conditions: Table 10; read-out: Reference IC50
# T6 sequence (Q92830 whole entry): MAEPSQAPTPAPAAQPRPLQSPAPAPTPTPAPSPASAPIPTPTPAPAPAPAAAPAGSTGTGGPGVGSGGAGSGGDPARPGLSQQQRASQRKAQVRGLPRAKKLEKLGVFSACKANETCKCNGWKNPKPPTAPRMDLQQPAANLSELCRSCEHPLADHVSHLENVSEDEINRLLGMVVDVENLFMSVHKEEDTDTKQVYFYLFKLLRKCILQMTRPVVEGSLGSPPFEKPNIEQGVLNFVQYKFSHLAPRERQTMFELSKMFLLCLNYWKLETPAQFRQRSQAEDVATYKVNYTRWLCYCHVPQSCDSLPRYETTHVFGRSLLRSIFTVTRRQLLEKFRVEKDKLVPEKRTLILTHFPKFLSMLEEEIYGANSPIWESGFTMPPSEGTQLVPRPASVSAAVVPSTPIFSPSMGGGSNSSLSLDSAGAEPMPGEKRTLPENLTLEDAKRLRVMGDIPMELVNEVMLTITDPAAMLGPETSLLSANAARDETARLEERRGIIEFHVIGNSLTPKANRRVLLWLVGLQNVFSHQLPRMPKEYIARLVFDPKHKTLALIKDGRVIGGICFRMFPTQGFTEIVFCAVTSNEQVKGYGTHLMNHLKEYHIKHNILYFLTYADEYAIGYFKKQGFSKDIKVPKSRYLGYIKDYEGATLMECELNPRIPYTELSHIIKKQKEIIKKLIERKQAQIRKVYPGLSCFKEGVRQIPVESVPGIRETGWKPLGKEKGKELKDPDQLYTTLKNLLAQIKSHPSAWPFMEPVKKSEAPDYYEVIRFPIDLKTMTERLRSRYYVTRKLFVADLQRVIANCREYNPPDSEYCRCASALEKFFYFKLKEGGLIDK
# GCN5L2(h) [14] = target: T6, GCN5L2(h); conditions: reference compound; biotin-H3K27me3 50 nM; 10 min/RT; LANCE; cited from earlier work
# BRD3(2) (h) bromodomain [15] = target: T7, BRD3(2) (h) bromodomain (Homo sapiens, UniProt Q15059); conditions: ligand biotin-H4 di acetyl Lys 5/8 100 nM; 30 min/RT; AlphaScreen; read-out: Reference IC50; cited from earlier work
# T7 construct: Bromodomain
# T7 sequence (Q15059 306-415 limits assumed): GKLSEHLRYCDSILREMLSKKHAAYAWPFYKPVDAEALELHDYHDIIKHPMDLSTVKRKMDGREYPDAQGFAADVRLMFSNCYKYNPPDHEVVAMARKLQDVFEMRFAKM
# BRD3(2) (h) bromodomain [16] = target: T7, BRD3(2) (h) bromodomain; test: Epigenetic binding assay, Bromodomain; conditions: Table 4; read-out: Reference IC50
# enzymes (Bioprint panel) [17] = test: biochemical; conditions: COMT (catechol- O-methyl transferase); read-out: Reference Compound IC50
# [18] = target: receptors (Bioprint panel) (Homo sapiens, UniProt P35348); test: biochemical; assay type: binding; conditions: read-out: Reference Compound IC50
# Sequence of receptors (Bioprint panel) (Homo sapiens, UniProt P35348) (P35348 whole entry): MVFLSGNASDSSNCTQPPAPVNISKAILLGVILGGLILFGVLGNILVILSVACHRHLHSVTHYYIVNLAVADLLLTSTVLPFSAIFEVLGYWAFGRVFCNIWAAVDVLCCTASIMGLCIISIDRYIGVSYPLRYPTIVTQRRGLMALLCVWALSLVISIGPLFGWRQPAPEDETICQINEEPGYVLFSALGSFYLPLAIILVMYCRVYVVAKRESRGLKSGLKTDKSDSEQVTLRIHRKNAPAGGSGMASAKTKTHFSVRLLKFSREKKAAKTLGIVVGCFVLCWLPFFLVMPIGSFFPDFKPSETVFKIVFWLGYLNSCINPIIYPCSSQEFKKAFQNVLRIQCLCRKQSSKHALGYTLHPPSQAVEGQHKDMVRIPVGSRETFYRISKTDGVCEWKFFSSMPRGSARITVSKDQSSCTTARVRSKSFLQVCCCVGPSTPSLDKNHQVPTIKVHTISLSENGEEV
# [19] = target: CYP2B6 (Bupropion Substrate) (Homo sapiens, UniProt P20813); test: Cytochrome P450 Inhibition (CYP panel)
# [20] = target: receptors (Bioprint panel) (Homo sapiens, UniProt Q9GZV3); test: biochemical; assay type: binding; conditions: choline transporter (CHT1) (h) (antagonist radioligand); read-out: Reference Compound IC50
# Sequence of receptors (Bioprint panel) (Homo sapiens, UniProt Q9GZV3) (Q9GZV3 whole entry): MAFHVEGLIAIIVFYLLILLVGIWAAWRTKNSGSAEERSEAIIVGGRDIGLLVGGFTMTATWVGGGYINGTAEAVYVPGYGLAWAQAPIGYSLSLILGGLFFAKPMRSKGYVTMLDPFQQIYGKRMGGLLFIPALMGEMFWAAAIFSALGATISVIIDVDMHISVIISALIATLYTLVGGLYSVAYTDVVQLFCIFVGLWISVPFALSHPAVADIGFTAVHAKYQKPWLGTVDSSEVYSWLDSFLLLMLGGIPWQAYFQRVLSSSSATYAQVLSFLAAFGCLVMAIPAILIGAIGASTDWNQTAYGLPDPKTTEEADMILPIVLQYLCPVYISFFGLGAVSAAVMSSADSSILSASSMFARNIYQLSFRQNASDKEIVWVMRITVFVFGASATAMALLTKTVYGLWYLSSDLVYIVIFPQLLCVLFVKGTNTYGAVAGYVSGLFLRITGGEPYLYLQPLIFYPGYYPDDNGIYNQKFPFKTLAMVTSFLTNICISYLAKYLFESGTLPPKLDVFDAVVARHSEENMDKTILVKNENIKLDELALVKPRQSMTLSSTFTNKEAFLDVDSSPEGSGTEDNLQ
# [21] = target: receptors (Bioprint panel) (Homo sapiens, UniProt Q9H3N8); test: biochemical; assay type: binding; conditions: read-out: Reference Compound IC50
# enzymes (Bioprint panel) [22] = target: T8, enzymes (Bioprint panel) (UniProt A0ABM2YAB8); test: biochemical; conditions: read-out: Reference Compound IC50
# T8 construct: other: MT3 (ML2) (agonist radioligand); 10 μM
# T8 sequence (A0ABM2YAB8 entry or part of it): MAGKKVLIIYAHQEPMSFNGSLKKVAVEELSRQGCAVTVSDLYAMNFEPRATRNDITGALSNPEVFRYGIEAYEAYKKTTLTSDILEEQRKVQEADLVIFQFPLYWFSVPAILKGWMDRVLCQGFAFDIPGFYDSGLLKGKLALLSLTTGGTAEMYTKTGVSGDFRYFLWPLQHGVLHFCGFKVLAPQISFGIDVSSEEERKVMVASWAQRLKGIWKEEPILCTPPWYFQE
# [23] = target: receptors (Bioprint panel) (Homo sapiens, UniProt P14867); test: biochemical; assay type: binding
# enzymes (Bioprint panel) [24] = target: T9, enzymes (Bioprint panel); test: biochemical; conditions: read-out: Reference Compound IC50
# T9 construct: other: ATPase (Na+/K+); 10 μM
# [25] = target: receptors (Bioprint panel) (Homo sapiens, UniProt P41597); test: biochemical; assay type: binding; conditions: CHEMOKINES CCR2 (h) (agonist radioligand); read-out: Reference Compound IC50
# Sequence of receptors (Bioprint panel) (Homo sapiens, UniProt P41597) (P41597 whole entry): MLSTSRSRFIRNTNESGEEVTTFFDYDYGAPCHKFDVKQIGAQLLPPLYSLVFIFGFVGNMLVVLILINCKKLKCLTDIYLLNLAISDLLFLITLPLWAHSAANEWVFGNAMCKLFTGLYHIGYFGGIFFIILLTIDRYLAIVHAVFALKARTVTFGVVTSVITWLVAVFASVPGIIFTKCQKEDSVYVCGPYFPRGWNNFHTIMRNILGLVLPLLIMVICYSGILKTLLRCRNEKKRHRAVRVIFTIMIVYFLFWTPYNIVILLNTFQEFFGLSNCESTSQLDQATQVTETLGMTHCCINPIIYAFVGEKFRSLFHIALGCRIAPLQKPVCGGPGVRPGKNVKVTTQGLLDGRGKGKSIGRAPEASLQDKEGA
compound,measurement,setting,value
COc1cc(CC(C)N)c(OC)cc1I (racemic) [(±)DOI],IC50,[1],0.24 nM
same,IC50,[2],6.7 nM
CCCCCC[C@@H]([C@@H](C)O)n1cnc2c(N)ncnc21 (racemic) [EHNA],IC50,enzymes (Bioprint panel) [3],1200 nM
"NC(=O)C1CCCc2c1[nH]c1ccc(Cl)cc21 (racemic) [EX-527, reference compound]",IC50,Sirtuin 6 (h) [4],550000 nM
same,IC50,Sirtuin 6 (h) [5],550000 nM
"O=C(O)c1ccnc(C(=O)O)c1 [2,4 PDCA, reference compound]",IC50,FBXL10 (h) [6],610 nM
same,IC50,JMJD2B (h) [7],140 nM
same,IC50,JARID1A (h) [8]; read-out: IC50,99 nM
same,IC50,JARID1A (h) [8]; read-out: Reference IC50,180 nM
same,IC50,FBXL10 (h) [9],610 nM
same,IC50,JARID1A (h) [10],180 nM
same,IC50,JMJD2B (h) [11]; read-out: IC50,95 nM
same,IC50,JMJD2B (h) [11]; read-out: Reference IC50,140 nM
CC(=N)NCc1cccc(CN)c1 [1400 W],IC50,enzymes (Bioprint panel) [12],29 nM
"CCCCCCCCCCCCCCCc1cccc(O)c1C(=O)O [Anacardic Acid, reference compound]",IC50,GCN5L2(h) [13],4700 nM
same,IC50,GCN5L2(h) [14],4700 nM
"COc1ccccc1S(=O)(=O)Nc1ccc2c(c1)CN(C)C(=O)N2 [PFI-1, reference compound]",IC50,BRD3(2) (h) bromodomain [15],790 nM
same,IC50,BRD3(2) (h) bromodomain [16],790 nM
O=C(c1cc(O)c(O)c([N+](=O)[O-])c1)c1ccccc1F [Ro 41-0960],IC50,enzymes (Bioprint panel) [17],61 nM
COc1cccc(OC)c1OCCNCC1COc2ccccc2O1 (stereo not drawn) [WB 4101],IC50,[18],0.27 nM
"COC(=O)[C@H](c1ccccc1Cl)N1CCc2sccc2C1 [clopidogrel, reference compound]",IC50,[19],390 nM
C[N+]1(C)CCOC(O)(c2ccc(-c3ccc(C4(O)C[N+](C)(C)CCO4)cc3)cc2)C1 (stereo not drawn) [hemicholinium-3],IC50,[20],4.6 nM
N=C(N)SCCc1cnc[nH]1 [imetit],IC50,[21],4.7 nM
COc1ccc2[nH]cc(CCNC(C)=O)c2c1 [melatonin],IC50,enzymes (Bioprint panel) [22],160 nM
NCc1cc(=O)[nH]o1 [muscimol],IC50,[23],53 nM
C[C@@H]1O[C@@H](O[C@H]2C[C@@H](O)[C@]3(CO)[C@H]4[C@H](O)C[C@]5(C)[C@@H](C6=CC(=O)OC6)CC[C@]5(O)[C@@H]4CC[C@]3(O)C2)[C@H](O)[C@H](O)[C@H]1O [ouabain],IC50,enzymes (Bioprint panel) [24],250 nM
MCP-1,IC50,[25],0.087 nM
